What all share (type): in vivo
Assay [1] concerns Blumeria (Erysiphe) graminis DC. f.sp. tritici E. Marchal. The assay is described as follows: Zero day protectant test, Wheat Powdery Mildew (WPM). Conditions: wheat variety Kanzler, 0 day protectant test, side-by-side, technical material in 0.5% acetone 0.05% Tween 20 water. From the text:
(§1) • (a) Wheat Powdery Mildew (WPM): HOST: Wheat (Triticum aestivum L.) variety Kanzler PATHOGEN: Blumeria (Erysiphe) graminis DC. f.sp. tritici E. Marchal • (b) Barley Powdery Mildew (BPM): HOST: Barley (Hordeum vulgare L.) variety Golden Promise PATHOGEN: Blumeria (Erysiphe) graminis DC. f.sp. hordei E. Marchal
(§2) This test is a zero day protectant test for control of wheat and barley powdery mildews. • 1. Wheat or barley seed (approximately 8-10/pot) is planted in 6 cm diameter plastic pots and maintained in the greenhouse. • 2. When the primary leaf is fully expanded, formulated test compounds are sprayed with a single nozzle overhead track sprayer at a rate of 200 l/ha. Plants are then allowed to air-dry. • 3. Inoculation follows about three hours after compound application. Plants are set up on greenhouse benches with bottom watering mats and inoculated by dusting them with conidia from powdery mildew infected plants (stock cultures at an age of 10-14 days). • 4. Disease on the primary leaf as percent leaf area with disease symptoms/signs is evaluated about 7 days after inoculation. The tips and bases of the leaves are excluded from the evaluation. Percent disease control is then calculated by the following formula: % disease control = 100 -(% infection in treated plants)/(% infection in untreated plants)x 100 [formula]
(§3) • 1. Technical compounds are formulated in a solvent/surfactant system consisting of […] acetone and 0.05% Tween 20 in deionized water. Compounds are dissolved in acetone prior to addition of the water; the Tween 20 can be added through either the acetone or the water. Dilutions are made using the solvent/surfactant system. Test compounds are typically tested over a range of concentrations covering several orders of magnitude and then ED values are calculated for comparison of compounds. Formulated compounds are prepared using deionized water. • 2. Two kinds of controls are included: • Plants treated with the solvent/surfactant solution and inoculated (Solvent Blank). • Untreated plants which are inoculated (Inoculated Control).
(§4) Compounds applied as technical material formulated in 0.5% acetone 0.05% Tween 20 water

Assay [2] deals with Blumeria (Erysiphe) graminis DC. f.sp. hordei E. Marchal. The assay is described as follows: Zero day protectant test, Barley Powdery Mildew (BPM). Conditions: barley variety Golden Promise, 0 day protectant test, side-by-side, technical material in 0.5% acetone 0.05% Tween 20 water.
From the text: as §1, §2, §3, §4

Assay [3] deals with Blumeria (Erysiphe) graminis DC. f.sp. tritici E. Marchal. Briefly: Curative and residual control test, Wheat Powdery Mildew (WPM). To be noted: read-out: Disease control (% efficacy). The source says:
(§5) • (a) Wheat Powdery Mildew (WPM): HOST: Wheat (Triticum aestivum L.) variety Kanzler PATHOGEN: Blumeria (Erysiphe) graminis DC. f.sp. tritici E. Marchal • (b) Cucumber Powdery Mildew (QPM): HOST: Cucumber (Cucumis sativus L.) variety Bush pickle PATHOGEN: Erysiphe cichoracearum DC
(§6) This test procedure is for curative and residual control of powdery mildew diseases. • 1. Wheat seed (approximately 8-10/pot) or cucumber seed (1 seed / pot) is planted in 6 cm diameter plastic pots and maintained in the greenhouse. • 2. When the primary leaf (wheat) or the cotyledons (cucumber) is/are fully expanded, formulated test compounds are sprayed with a single nozzle overhead track sprayer at a rate of 200 l/ha. Plants are then allowed to air-dry. • 3. Inoculation precedes treatment by 2 or 3 days in the case of curative evaluations and follows treatment by 3 or 4 days in case of residual evaluations. For inoculation, plants are set up on greenhouse benches with bottom watering mats and inoculated by dusting them with conidia from powdery mildew infected plants (stock cultures at an age of 10-14 days). Between inoculation and treatment for curative evaluations and between treatment and inoculation for residual evaluations, plants are maintained in the greenhouse with bottom watering. • 4. Disease on the primary leaf (wheat) or on the cotyledons (cucumber) as percent leaf area with disease symptoms/signs is evaluated about 7 days after inoculation. In the case of wheat, the tips and bases of the leaves are excluded from the evaluation. Percent disease control is then calculated by the following formula: % disease control = 100 -(% infection in treated plants)/(% infection in untreated plants)x 100 [formula]
(§7) • 1. Technical compounds are formulated in a solvent/surfactant system consisting of 5% acetone and 0.05% Tween 20 in deionized water. Compounds are dissolved in acetone prior to addition of the water; the Tween 20 can be added through either the acetone or the water. Dilutions are made using the solvent/surfactant system. Formulated compounds are prepared using deionized water. • 2. Two kinds of controls are included: • Plants treated with the solvent/surfactant solution and inoculated (Solvent Blank). • Untreated plants which are inoculated (Inoculated Control).

For assay [4], the system named is Erysiphe cichoracearum DC. The assay is described as follows: Curative and residual control test, Cucumber Powdery Mildew (QPM). Conditions: Golovinomyces cichoracearum, 72 h, read-out: Disease control (% efficacy); for Emax at 12.5 ppm: QPM 3 da R (3 day residual), 12,5 ppm; for Emax at 125 ppm / Emax at 1250 ppm: QPM 3 da R (3 day residual).
From the text: as §5, §6, §7

[5] abbreviates: 48 h, WPM 2 da C (2 day curative), 12,5 ppm, Test B.
[6] abbreviates: 48 h, WPM 2 da C (2 day curative), 125 ppm, Test B.
[7] abbreviates: 48 h, WPM 2 da C (2 day curative), 1250 ppm, Test B.
Setting [8] is: 72 h, WPM 3 da R (3 day residual), 12,5 ppm, Test B.
[9] abbreviates: 72 h, WPM 3 da R (3 day residual), 125 ppm, Test B.
Where [10] appears, read: 72 h, WPM 3 da R (3 day residual), 1250 ppm, Test B.
[11] abbreviates: 72 h, WPM 3 da C (3 day curative).
[12] abbreviates: 72 h, WPM 3 da C (3 day curative), 125 ppm.
[13] abbreviates: 96 h, WPM 4 da R (4 day residual).
The mark [14] stands for this setting: 96 h, WPM 4 da R (4 day residual), 125 ppm.

Read-outs that look alike come from different tables or passages of the source.

For `COc1cc(C)c(C(=O)c2c(OC)ccc(Br)c2Cl)c(OC)c1OC` [Example 4, 5-bromo-6-chloro-6'-methyl-2,2',3',4'-tetramethoxy-benzophenone], the “ED90 (ppm)” value is listed as 5 ppm in assay [1] and 7 ppm in assay [2]. The percent disease control at 12.5 ppm in assay [3] (setting [5]) is 55%; in assay [3] (setting [8]), 99%. Moreover, the figures for the percent disease control at 125 ppm in assay [3] (setting [6]) and in assay [3] (setting [9]) were 71% and 100%, respectively. In addition, the percent disease control at 1250 ppm was 61% in assay [3] (setting [7]) and 100% in assay [3] (setting [10]). The Emax at 12.5 ppm in assay [4] (Test B) was determined as 8%. Besides, the Emax at 125 ppm in assay [4] (Test B) turned out to be 97%. Further, the Emax at 1250 ppm in assay [4] (Test B) is 100%.
Take `COc1cc(C)c(C(=O)c2c(OC)ccc(Br)c2C)c(OC)c1OC` [Example 6, 5-bromo-6,6'-dimethyl-2,2',3',4'-tetramethoxy-benzophenone]: the results for the “ED90 (ppm)” value in assay [1] and in assay [2] were 0.1 ppm and 0.9 ppm, respectively. The percent disease control at 12.5 ppm was 90% in assay [3] (48 h, WPM 2 da C (2 day curative), 12,5 ppm, Test A); 100% in assay [3] (72 h, WPM 3 da R (3 day residual), 12,5 ppm, Test A); 100% in assay [3] (setting [8]). Further, the Emax at 12.5 ppm in assay [3] (setting [5]) was 61%; in assay [4] (Test A), 2%; in assay [4] (Test B), 35%. Moreover, the percent disease control at 125 ppm in assay [3] (48 h, WPM 2 da C (2 day curative), 125 ppm, Test A) was found to be 95%; in assay [3] (setting [12]), 64%; in assay [3] (72 h, WPM 3 da R (3 day residual), 125 ppm, Test A), 100%; in assay [3] (setting [9]), 100%; in assay [3] (setting [14]), 100%. The Emax at 125 ppm in assay [3] (setting [6]) came out at 89%; in assay [4] (Test A), 92%; in assay [4] (Test B) it was 92%. Besides, the percent disease control at 1250 ppm in assay [3] (48 h, WPM 2 da C (2 day curative), 1250 ppm, Test A) is 98%; in assay [3] (72 h, WPM 3 da R (3 day residual), 1250 ppm, Test A), 100%; in assay [3] (setting [10]), 100%. Besides, the Emax at 1250 ppm in assay [3] (setting [7]) turned out to be 87%; in assay [4] (Test A), 100%; in assay [4] (Test B) it was 100%. The percent disease control at 0.2 ppm in assay [3] (setting [11]) came to 17%; in assay [3] (setting [13]), 58%. For the same molecule, the percent disease control at 1 ppm in assay [3] (setting [11]) stood at 27%; in assay [3] (setting [13]), 90%. Besides, the percent disease control at 5 ppm was found to be 43% in assay [3] (setting [11]) and 100% in assay [3] (setting [13]). The percent disease control at 25 ppm in assay [3] (setting [11]) was 60%; in assay [3] (setting [13]), 100%.
`COc1cc(C)c(C(=O)c2c(OC)ccc(C(F)(F)F)c2C)c(OC)c1OC` [Example 64, 6,6'-dimethyl-2,2',3',4'-tetramethoxy-5-trifluoromethyl-benzophenone]: in assay [3] (setting [11]), the percent disease control at 0.2 ppm worked out at 10%, the percent disease control at 1 ppm is 37%, the percent disease control at 5 ppm came to 48% and the percent disease control at 25 ppm was 60%. Besides, in assay [3] (setting [12]), the percent disease control at 125 ppm amounted to 72%. For the same molecule, in assay [3] (setting [13]), the percent disease control at 0.2 ppm worked out at 51%, the percent disease control at 1 ppm stood at 89%, the percent disease control at 5 ppm worked out at 99% and the percent disease control at 25 ppm stood at 100%. Besides, the percent disease control at 125 ppm in assay [3] (setting [14]) turned out to be 100%.
As to `COc1cc(C)c(C(=O)c2c(OC)cccc2C(F)(F)F)c(OC)c1OC` [Example 65, 6'-methyl-2,2',3',4'-tetramethoxy-6-trifluoromethyl-benzophenone], in assay [3] (setting [11]), the percent disease control at 0.2 ppm was found to be 10%, the percent disease control at 1 ppm was determined as 23%, the percent disease control at 5 ppm turned out to be 23% and the percent disease control at 25 ppm amounted to 48%. In assay [3] (setting [12]), the percent disease control at 125 ppm is 58%. Also, in assay [3] (setting [13]), the percent disease control at 0.2 ppm worked out at 25%, the percent disease control at 1 ppm worked out at 50%, the percent disease control at 5 ppm amounted to 93% and the percent disease control at 25 ppm came out at 99%. Further, the percent disease control at 125 ppm in assay [3] (setting [14]) came to 100%.
As for `Fc1ccc(Oc2ccnc3cc(Cl)cc(Cl)c23)cc1` [Quinoxyfen, reference compound], the entries for the “ED90 (ppm)” value in assay [1] and in assay [2] were 12 ppm and 26 ppm, respectively.

(Values after patent EP0897904B1, “Fungicidal 2-methoxybenzophenones” (BASF AKTIENGESELLSCHAFT, priority 1997, dated 1999).)
